Experimental data taken from ChEMBL document CHEMBL5291721, “A preclinical secondary pharmacology resource illuminates target-adverse drug reaction associations of marketed drugs” (Nat Commun, 2023).

Key:
[1] = molecular target: Kappa-type opioid receptor (Homo sapiens, UniProt P41145)
Vasopressin V2 receptor = Vasopressin V2 receptor (Homo sapiens, UniProt P30518)
[2] = molecular target: Beta-1 adrenergic receptor (Homo sapiens, UniProt P08588); assay type: functional
Thromboxane A2 receptor = molecular target: T1, Thromboxane A2 receptor (Homo sapiens, UniProt P21731)
T1 sequence (P21731 whole entry): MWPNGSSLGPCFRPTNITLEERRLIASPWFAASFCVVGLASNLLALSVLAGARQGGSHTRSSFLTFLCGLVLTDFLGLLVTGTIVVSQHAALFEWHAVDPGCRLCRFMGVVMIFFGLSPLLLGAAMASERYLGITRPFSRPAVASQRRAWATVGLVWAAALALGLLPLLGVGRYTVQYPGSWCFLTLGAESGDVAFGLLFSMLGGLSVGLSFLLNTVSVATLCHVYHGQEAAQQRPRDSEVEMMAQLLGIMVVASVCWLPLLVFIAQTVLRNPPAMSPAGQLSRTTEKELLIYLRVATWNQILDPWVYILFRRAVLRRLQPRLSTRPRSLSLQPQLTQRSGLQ

[3] = molecular target: T2, Amine oxidase [flavin-containing] A (Homo sapiens, UniProt P21397); assay type: functional
T2 sequence (P21397 whole entry): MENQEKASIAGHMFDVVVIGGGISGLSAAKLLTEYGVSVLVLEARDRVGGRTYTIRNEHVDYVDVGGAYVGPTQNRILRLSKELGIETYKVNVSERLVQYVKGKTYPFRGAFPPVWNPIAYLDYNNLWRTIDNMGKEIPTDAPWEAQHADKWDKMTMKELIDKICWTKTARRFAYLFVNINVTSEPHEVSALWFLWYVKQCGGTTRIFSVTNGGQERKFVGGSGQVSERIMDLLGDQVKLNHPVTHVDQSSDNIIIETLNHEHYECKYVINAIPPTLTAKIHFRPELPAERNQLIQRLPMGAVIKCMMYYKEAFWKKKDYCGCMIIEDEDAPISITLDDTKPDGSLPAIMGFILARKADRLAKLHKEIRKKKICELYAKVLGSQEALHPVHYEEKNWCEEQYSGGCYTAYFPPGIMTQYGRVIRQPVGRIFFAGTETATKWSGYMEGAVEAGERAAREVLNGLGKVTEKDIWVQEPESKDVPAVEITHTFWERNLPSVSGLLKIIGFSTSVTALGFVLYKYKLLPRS

D(3) dopamine receptor = D(3) dopamine receptor (Homo sapiens, UniProt P35462)
D(3) dopamine receptor, sequence (P35462 whole entry): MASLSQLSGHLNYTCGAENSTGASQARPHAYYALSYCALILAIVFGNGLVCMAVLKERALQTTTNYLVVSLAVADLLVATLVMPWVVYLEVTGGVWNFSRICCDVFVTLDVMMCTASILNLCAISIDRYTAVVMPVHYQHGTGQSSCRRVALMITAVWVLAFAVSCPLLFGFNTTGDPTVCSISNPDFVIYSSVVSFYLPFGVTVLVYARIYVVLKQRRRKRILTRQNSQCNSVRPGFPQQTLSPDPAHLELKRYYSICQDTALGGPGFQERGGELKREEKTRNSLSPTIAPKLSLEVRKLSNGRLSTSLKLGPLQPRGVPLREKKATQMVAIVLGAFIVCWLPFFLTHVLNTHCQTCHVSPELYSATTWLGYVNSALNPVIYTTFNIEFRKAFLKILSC

[4] = molecular target: T3, Cholecystokinin receptor type A (Homo sapiens, UniProt P32238)
T3 sequence (P32238 whole entry): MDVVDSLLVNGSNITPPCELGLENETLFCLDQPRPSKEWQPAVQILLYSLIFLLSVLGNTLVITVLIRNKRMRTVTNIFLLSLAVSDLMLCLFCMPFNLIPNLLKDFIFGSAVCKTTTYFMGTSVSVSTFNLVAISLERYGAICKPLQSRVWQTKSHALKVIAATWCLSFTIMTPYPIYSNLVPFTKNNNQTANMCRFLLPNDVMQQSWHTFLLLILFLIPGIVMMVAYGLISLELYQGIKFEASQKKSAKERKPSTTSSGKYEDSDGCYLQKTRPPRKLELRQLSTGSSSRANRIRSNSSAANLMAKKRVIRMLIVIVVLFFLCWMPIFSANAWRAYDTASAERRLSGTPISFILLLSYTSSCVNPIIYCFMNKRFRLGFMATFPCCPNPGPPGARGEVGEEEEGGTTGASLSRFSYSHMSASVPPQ

Mu-type opioid receptor = Mu-type opioid receptor (Homo sapiens, UniProt P35372)
Mu-type opioid receptor, sequence (P35372 whole entry): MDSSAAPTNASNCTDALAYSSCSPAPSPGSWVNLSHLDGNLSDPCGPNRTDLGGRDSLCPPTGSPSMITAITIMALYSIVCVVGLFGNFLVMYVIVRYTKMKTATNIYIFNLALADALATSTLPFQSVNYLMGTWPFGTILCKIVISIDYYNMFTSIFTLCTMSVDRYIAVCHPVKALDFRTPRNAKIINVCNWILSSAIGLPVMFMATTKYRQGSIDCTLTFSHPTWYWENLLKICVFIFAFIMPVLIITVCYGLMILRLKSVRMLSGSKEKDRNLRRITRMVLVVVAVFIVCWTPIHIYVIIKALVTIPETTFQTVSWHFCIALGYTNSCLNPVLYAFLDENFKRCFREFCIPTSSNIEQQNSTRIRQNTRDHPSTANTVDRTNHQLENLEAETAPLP

Cannabinoid receptor 1 = Cannabinoid receptor 1 (Homo sapiens, UniProt P21554); assay type: functional, cell-based
Cannabinoid receptor 1, sequence (P21554 whole entry): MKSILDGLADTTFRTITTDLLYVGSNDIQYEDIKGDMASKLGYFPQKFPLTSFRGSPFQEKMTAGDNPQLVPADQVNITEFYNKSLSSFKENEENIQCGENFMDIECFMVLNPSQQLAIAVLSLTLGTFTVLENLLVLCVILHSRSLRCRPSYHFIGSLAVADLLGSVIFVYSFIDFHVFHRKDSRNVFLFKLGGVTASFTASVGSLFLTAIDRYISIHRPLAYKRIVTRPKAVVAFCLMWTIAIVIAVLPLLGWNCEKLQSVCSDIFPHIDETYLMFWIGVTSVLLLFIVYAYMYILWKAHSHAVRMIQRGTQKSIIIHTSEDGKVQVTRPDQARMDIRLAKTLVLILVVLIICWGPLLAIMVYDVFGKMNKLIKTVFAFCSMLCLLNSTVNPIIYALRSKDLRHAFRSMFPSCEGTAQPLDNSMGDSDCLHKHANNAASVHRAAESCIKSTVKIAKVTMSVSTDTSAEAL

[5] = molecular target: T4, Prostaglandin G/H synthase 1 (Rattus norvegicus, UniProt Q63921); assay type: functional
T4 sequence (Q63921 whole entry): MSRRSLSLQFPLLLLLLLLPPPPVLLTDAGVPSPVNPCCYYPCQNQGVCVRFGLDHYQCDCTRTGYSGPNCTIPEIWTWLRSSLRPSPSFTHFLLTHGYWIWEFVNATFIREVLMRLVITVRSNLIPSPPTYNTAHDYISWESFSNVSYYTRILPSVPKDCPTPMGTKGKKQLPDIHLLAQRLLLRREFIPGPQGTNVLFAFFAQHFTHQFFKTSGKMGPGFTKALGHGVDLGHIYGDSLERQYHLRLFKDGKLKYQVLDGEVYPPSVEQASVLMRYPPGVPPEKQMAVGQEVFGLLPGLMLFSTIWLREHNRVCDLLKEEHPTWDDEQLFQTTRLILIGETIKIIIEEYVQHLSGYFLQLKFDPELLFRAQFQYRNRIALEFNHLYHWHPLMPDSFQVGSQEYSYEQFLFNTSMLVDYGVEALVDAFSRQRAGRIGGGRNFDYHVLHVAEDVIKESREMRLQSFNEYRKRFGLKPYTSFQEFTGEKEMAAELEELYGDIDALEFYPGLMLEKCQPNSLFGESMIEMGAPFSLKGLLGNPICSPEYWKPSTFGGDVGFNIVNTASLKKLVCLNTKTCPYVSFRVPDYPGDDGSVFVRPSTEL
Note: assay procedure not described here.

Kappa-type opioid receptor, sequence (P41145 whole entry): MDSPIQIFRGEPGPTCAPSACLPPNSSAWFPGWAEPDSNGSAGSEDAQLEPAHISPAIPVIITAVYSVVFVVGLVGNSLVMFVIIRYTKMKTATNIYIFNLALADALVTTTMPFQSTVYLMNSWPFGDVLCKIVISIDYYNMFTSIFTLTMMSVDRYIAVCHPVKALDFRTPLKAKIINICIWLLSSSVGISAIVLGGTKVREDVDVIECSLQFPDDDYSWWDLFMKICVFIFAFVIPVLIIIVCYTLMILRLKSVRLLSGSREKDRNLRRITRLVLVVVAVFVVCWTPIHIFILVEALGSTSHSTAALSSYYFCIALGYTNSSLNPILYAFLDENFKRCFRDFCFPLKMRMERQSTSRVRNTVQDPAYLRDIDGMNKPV
Vasopressin V2 receptor, sequence (P30518 whole entry): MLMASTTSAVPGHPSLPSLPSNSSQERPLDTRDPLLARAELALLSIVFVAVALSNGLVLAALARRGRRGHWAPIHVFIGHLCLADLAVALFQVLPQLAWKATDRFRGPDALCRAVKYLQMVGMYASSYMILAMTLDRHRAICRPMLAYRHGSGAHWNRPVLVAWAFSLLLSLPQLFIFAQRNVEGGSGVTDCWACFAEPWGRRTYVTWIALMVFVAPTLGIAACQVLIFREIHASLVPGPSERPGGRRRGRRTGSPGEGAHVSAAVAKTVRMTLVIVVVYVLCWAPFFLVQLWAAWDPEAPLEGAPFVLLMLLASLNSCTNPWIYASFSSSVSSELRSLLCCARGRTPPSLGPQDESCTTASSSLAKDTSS
Beta-1 adrenergic receptor, sequence (P08588 whole entry): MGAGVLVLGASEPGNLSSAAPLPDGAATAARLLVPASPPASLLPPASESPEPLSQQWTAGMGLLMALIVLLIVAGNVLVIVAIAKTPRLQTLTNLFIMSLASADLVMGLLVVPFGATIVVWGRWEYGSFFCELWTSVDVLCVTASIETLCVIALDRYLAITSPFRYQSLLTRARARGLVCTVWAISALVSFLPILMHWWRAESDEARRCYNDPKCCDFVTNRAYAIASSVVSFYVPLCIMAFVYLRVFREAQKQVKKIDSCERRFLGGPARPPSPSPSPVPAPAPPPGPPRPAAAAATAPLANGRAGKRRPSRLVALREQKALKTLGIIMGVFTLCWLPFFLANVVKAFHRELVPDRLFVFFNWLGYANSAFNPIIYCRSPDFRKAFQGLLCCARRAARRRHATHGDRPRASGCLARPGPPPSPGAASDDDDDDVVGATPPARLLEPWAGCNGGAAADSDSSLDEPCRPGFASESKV

Row | Compound | AC50 [1] [µM] | AC50 (Vasopressin V2 receptor) [µM] | AC50 [2] [µM] | AC50 (Thromboxane A2 receptor) [µM] | AC50 [3] [µM] | AC50 (D(3) dopamine receptor) [µM] | AC50 [4] [µM] | AC50 (Mu-type opioid receptor) [µM] | AC50 (Cannabinoid receptor 1) [µM] | AC50 [5] [µM]
1 | O=C1C(CC[S+]([O-])c2ccccc2)C(=O)N(c2ccccc2)N1c1ccccc1 (configuration not stated) [SULFINPYRAZONE] | > 10 | > 10 | > 10 | > 10 | > 10 | > 30 | > 10 | > 30 | > 30 | > 10
2 | Cc1onc(-c2ccccc2)c1-c1ccc(S(N)(=O)=O)cc1 [VALDECOXIB] | > 10 | > 30 | 8.32 | > 30 | > 10 | > 30 | > 30 | > 30 | > 30 | > 30
3 | CN(C)CCC[C@@]1(c2ccc(F)cc2)OCc2cc(C#N)ccc21 [ESCITALOPRAM] | > 30 | > 30 | > 30 | > 30 | > 30 | – | > 30 | – | > 30 | > 30
4 | Nc1ccc(S(=O)(=O)Nc2nccs2)cc1 [SULFATHIAZOLE] | > 10 | > 30 | > 10 | > 30 | > 10 | > 10 | > 30 | > 30 | > 30 | > 30
5 | CC(C)N(CCC(C(N)=O)(c1ccccc1)c1ccccn1)C(C)C (configuration not stated) [DISOPYRAMIDE] | 6.73 | > 30 | > 30 | > 30 | > 10 | > 30 | > 30 | > 30 | > 30 | 13.6
6 | O=C1CCc2cc(OCCCCc3nnnn3C3CCCCC3)ccc2N1 [CILOSTAZOL] | 3.06 | > 30 | > 30 | > 30 | > 30 | > 30 | > 30 | > 30 | > 30 | > 30
7 | C=C[C@H]1C[N@@]2CC[C@H]1C[C@@H]2[C@@H](O)c1ccnc2ccc(OC)cc12 [QUINIDINE] | 4 | > 30 | – | – | > 10 | 2.8 | > 30 | 6.2 | > 30 | > 30
8 | CCN1CCN(Cc2ccc(Nc3ncc(F)c(-c4cc(F)c5nc(C)n(C(C)C)c5c4)n3)nc2)CC1 [ABEMACICLIB] | – | – | > 30 | – | > 30 | > 30 | > 30 | > 30 | > 30 | > 30
9 | COc1ccc(CC2c3cc(OC)c(OC)cc3CC[N+]2(C)CCC(=O)OCCCCCOC(=O)CC[N+]2(C)CCc3cc(OC)c(OC)cc3C2Cc2ccc(OC)c(OC)c2)cc1OC (configuration not stated) | 22 | > 30 | > 30 | > 30 | > 30 | > 30 | > 30 | – | – | > 30
10 | N[C@@H](CC(=O)N1CCn2c(nnc2C(F)(F)F)C1)Cc1cc(F)c(F)cc1F [SITAGLIPTIN] | > 10 | – | > 30 | > 10 | > 30 | > 30 | > 30 | > 30 | > 30 | > 30
11 | CC(C(=O)O)c1ccc2c(c1)[nH]c1ccc(Cl)cc12 (configuration not stated) [CARPROFEN] | > 10 | > 30 | > 30 | > 30 | > 10 | > 30 | > 30 | > 30 | – | > 30
12 | CN1C[C@H](C(=O)N[C@]2(C)O[C@@]3(O)[C@@H]4CCCN4C(=O)[C@H](Cc4ccccc4)N3C2=O)C=C2c3cccc4[nH]cc(c34)C[C@H]21 [ERGOTAMINE] | – | – | > 30 | – | > 30 | 1.6 | > 30 | > 30 | > 30 | 26
13 | COc1ccccc1OCCNCC(O)COc1cccc2[nH]c3ccccc3c12 (configuration not stated) [CARVEDILOL] | 18.9 | > 30 | – | > 30 | > 10 | 0.47 | > 30 | 1.7 | > 30 | > 30
14 | C[C@@H](Oc1cc(-c2cnn(C3CCNCC3)c2)cnc1N)c1c(Cl)ccc(F)c1Cl [CRIZOTINIB] | – | > 30 | > 30 | > 30 | 30 | > 30 | > 30 | > 30 | > 30 | 8.2
15 | O=C1CN(/N=C/c2ccc(-c3ccc([N+](=O)[O-])cc3)o2)C(O)=N1 [DANTROLENE] | > 10 | > 10 | > 10 | > 10 | > 10 | > 30 | > 10 | > 30 | – | > 10
16 | CC(N)C12CC3CC(CC(C3)C1)C2 (configuration not stated) [RIMANTADINE] | > 10 | > 10 | > 10 | > 10 | > 10 | > 30 | > 10 | > 30 | – | > 10
17 | CC(C)c1nc(N(C)S(C)(=O)=O)nc(-c2ccc(F)cc2)c1/C=C/[C@@H](O)C[C@@H](O)CC(=O)O [ROSUVASTATIN] | > 30 | > 30 | > 30 | – | > 30 | > 30 | > 30 | > 30 | > 30 | > 30
18 | C[C@H](CCC(=O)O)[C@H]1CC[C@H]2[C@@H]3[C@@H](O)C[C@@H]4C[C@H](O)CC[C@]4(C)[C@H]3CC[C@]12C [URSODIOL] | – | – | > 30 | – | > 30 | > 30 | > 30 | > 30 | > 30 | > 30
19 | CC(C)(C)NCC(O)c1cc(O)cc(O)c1 (configuration not stated) [TERBUTALINE] | – | > 30 | – | > 30 | – | – | > 30 | – | – | > 30
20 | CN(C)CC[C@@H](c1ccc(Cl)cc1)c1ccccn1 [DEXCHLORPHENIRAMINE] | 12 | > 30 | > 30 | > 30 | > 30 | > 30 | > 30 | – | > 30 | > 30
21 | CC(S)C(=O)NCC(=O)O (configuration not stated) [TIOPRONIN] | – | – | > 30 | – | > 30 | > 30 | > 30 | > 30 | > 30 | 3.3
22 | CCN(CC)CCNC(=O)c1c(C)[nH]c(/C=C2\C(=O)Nc3ccc(F)cc32)c1C [SUNITINIB] | 10.3 | 5.4 | – | 9.1 | > 30 | 1.94 | 6.7 | 4.9 | > 30 | > 30
